The source made the active and inactive calls. No rule for the calls is given here.
How the values were obtained:
[1] = biological target: T1, Dual specificity mitogen-activated protein kinase kinase 7 (Homo sapiens, UniProt O14733); assay: Inhibition of GST-tagged human MKK7 expressed in Escherichia coli (BL21(DE3) pLysS) co-expressing human MEKK catalytic domain using biotinylated and GST-tagged rat GST-KN-SAPKalpha substrate incubated for 1 hr by time-resolved fluorescence based assay
T1 sequence (O14733 whole entry): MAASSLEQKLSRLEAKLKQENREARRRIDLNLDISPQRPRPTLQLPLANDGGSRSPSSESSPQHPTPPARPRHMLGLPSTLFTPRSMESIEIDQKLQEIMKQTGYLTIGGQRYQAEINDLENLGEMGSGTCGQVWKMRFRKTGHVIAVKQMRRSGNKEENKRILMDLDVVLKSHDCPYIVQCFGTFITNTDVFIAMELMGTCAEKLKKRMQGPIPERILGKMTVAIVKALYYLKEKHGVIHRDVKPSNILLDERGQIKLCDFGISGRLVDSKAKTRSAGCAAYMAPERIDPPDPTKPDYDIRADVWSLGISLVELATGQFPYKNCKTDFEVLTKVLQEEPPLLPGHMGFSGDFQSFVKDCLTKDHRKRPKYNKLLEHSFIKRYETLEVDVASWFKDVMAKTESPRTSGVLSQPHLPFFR

Mus musculus [2] = assay: Inhibition of anti-CD3 antibody-induced IL2 production in Balb/c mouse dosed intravenously 5 mins before anti-CD3 antibody injection and measured 2 hrs post-challenge by ELISA; type: functional, organism-based
Mus musculus [3] = assay: Inhibition of anti-CD3 antibody-induced IFNgamma production in Balb/c mouse dosed intravenously 5 mins before anti-CD3 antibody injection and measured 2 hrs post-challenge by ELISA; type: functional, organism-based
Mus musculus [4] = assay: Inhibition of anti-CD3 antibody-induced IL4 production in Balb/c mouse dosed intravenously 5 mins before anti-CD3 antibody injection and measured 2 hrs post-challenge by ELISA; type: functional, organism-based

Row | SMILES | IC50 [1] | inhibition (Mus musculus [2]) | inhibition (Mus musculus [3]) | inhibition (Mus musculus [4])
1 | NC(=O)c1ccc2[nH]c3ncnc(NC4CCCCCC4)c3c2c1 | < 1 µM | Active | Active | Active
2 | CC1CCCN(c2ncnc3[nH]c4ccc(O)cc4c23)C1 (centres undefined) | < 1 µM | Active | Active | Active
3 | CNC1CCN(c2ncnc3[nH]c4ccc(C(N)=O)cc4c23)C1 (centres undefined) | < 1 µM | Active | Active | Active
4 | Cc1nc(N2CCCC(C)C2)c2c(n1)[nH]c1ccc(O)cc12 (centres undefined) | 1 µM | Active | Active | Active
5 | CCC1CCCCN1c1ncnc2[nH]c3ccc(O)cc3c12 (centres undefined) | < 1 µM | Active | Active | Active
6 | OCC1CCCCN1c1ncnc2[nH]c3ccc(O)cc3c12 (centres undefined) | < 1 µM | Active | Active | Active
7 | CC(C)N(C)c1nc(N)nc2[nH]c3ccc(O)cc3c12 | < 1 µM | Active | Active | Active
8 | NC(=O)c1ccc2[nH]c3nc(N)nc(N4CCCCC4)c3c2c1 | < 1 µM | Active | Active | Active
9 | CC1CCN(c2ncnc3[nH]c4ccc(C(N)=O)cc4c23)CC1 | < 1 µM | Active | Active | Active
10 | OCCN(CCO)c1ncnc2[nH]c3ccc(O)cc3c12 | < 1 µM | Active | Active | Active
11 | CCC1CCCCN1c1ncnc2[nH]c3ccc(C(N)=O)cc3c12 (centres undefined) | < 1 µM | Active | Active | Active
12 | OCCC1CCN(c2ncnc3[nH]c4ccc(O)cc4c23)CC1 | < 1 µM | Active | Active | Active
13 | Nc1nc(N2CCCCC2)c2c(n1)[nH]c1ccc(Cl)cc12 | 1 µM | Active | Active | Active
14 | OCC1CCCN(c2ncnc3[nH]c4ccc(O)cc4c23)C1 (centres undefined) | < 1 µM | Active | Active | Active
15 | Oc1ccc2[nH]c3ncnc(NC4CCCCC4)c3c2c1 | < 1 µM | Active | Active | Active
16 | OC[C@H](Cc1ccccc1)Nc1ncnc2[nH]c3ccc(O)cc3c12 | < 1 µM | Active | Active | Active
17 | CC1CC(C)CN(c2ncnc3[nH]c4ccc(O)cc4c23)C1 (centres undefined) | 1 µM | Active | Active | Active
18 | O=CN1CCN(c2ncnc3[nH]c4ccc(O)cc4c23)CC1 | < 1 µM | Active | Active | Active
19 | Cc1nc(N2CCCC(O)C2)c2c(n1)[nH]c1ccc(O)cc12 (centres undefined) | < 1 µM | Active | Active | Active
20 | NC(=O)c1ccc2[nH]c3ncnc(N4CCOCC4)c3c2c1 | < 1 µM | Active | Active | Active
21 | Oc1ccc2[nH]c3ncnc(NC4CCOCC4)c3c2c1 | < 1 µM | Active | Active | Active

Row | SMILES | IC50 [1] | inhibition (Mus musculus [2]) | inhibition (Mus musculus [3]) | inhibition (Mus musculus [4])
22 | Oc1ccc2[nH]c3ncnc(N4CCCCCC4)c3c2c1 | < 1 µM | Active | Active | Active
23 | Oc1ccc2[nH]c3ncnc(N4CCCC4)c3c2c1 | < 1 µM | Active | Active | Active
24 | CC(=O)NC1CCN(c2ncnc3[nH]c4ccc(C(N)=O)cc4c23)CC1 | < 1 µM | Active | Active | Active
25 | COc1cc2[nH]c3nc(N)nc(N4CCCCC4)c3c2cc1OC | 1 µM | Active | Active | Active
26 | OCCC1CCCN(c2ncnc3[nH]c4ccc(O)cc4c23)C1 (centres undefined) | < 1 µM | Active | Active | Active
27 | NC(=O)c1ccc2[nH]c3ncnc(N4CCC(O)(Cc5ccccc5)CC4)c3c2c1 | < 1 µM | Active | Active | Active
28 | Nc1nc(N2CCCC(O)C2)c2c(n1)[nH]c1ccc(O)cc12 (centres undefined) | < 1 µM | Active | Active | Active
29 | Nc1nc(NCCO)c2c(n1)[nH]c1ccc(O)cc12 | < 1 µM | Active | Active | Active
30 | CC(C)(C)OC(=O)N1CCC(Nc2ncnc3[nH]c4ccc(O)cc4c23)CC1 | < 1 µM | Active | Active | Active
31 | Nc1nc(N2CCC(O)CC2)c2c(n1)[nH]c1ccc(O)cc12 | < 1 µM | Active | Active | Active
32 | NCCNc1ncnc2[nH]c3ccc(O)cc3c12 | < 1 µM | Active | Active | Active
33 | NC(=O)c1ccc2[nH]c3ncnc(NC4CCCCC4)c3c2c1 | < 1 µM | Active | Active | Active
34 | NC(=O)c1ccc2[nH]c3ncnc(N(CCO)Cc4ccccc4)c3c2c1 | < 1 µM | Active | Active | Active
35 | CC(C)N(C)c1ncnc2[nH]c3ccc(O)cc3c12 | < 1 µM | Active | Active | Active
36 | CCN(CC)c1nc(C)nc2[nH]c3ccc(O)cc3c12 | 1 µM | Active | Active | Active
37 | Cc1nc(N2CCC(C)CC2)c2c(n1)[nH]c1ccc(O)cc12 | < 1 µM | Active | Active | Active
38 | CN(CCO)c1ncnc2[nH]c3ccc(C(N)=O)cc3c12 | < 1 µM | Active | Active | Active
39 | NC(=O)c1ccc2[nH]c3ncnc(N4CCCC(O)C4)c3c2c1 (centres undefined) | < 1 µM | Active | Active | Active
40 | Nc1nc(N2CCNCC2)c2c(n1)[nH]c1ccc(O)cc12 | 1 µM | Active | Active | Active
41 | COC1CCN(c2ncnc3[nH]c4ccc(O)cc4c23)CC1 | < 1 µM | Active | Active | Active
